Measurements from PMC4331650 (Biochimica et Biophysica Acta, 2014).
Residue numbers refer to the chain shown, from its start. Several values for one entry are separate records, joined by “and”; a condition that tells them apart may be missing. Identical values can stand only once.

Tests used:
WT CLC-Ka = molecular target: T1, WT CLC-Ka (Homo sapiens, UniProt P51800); conditions: Xenopus oocytes; cited from earlier work
T1 sequence (P51800 1-687): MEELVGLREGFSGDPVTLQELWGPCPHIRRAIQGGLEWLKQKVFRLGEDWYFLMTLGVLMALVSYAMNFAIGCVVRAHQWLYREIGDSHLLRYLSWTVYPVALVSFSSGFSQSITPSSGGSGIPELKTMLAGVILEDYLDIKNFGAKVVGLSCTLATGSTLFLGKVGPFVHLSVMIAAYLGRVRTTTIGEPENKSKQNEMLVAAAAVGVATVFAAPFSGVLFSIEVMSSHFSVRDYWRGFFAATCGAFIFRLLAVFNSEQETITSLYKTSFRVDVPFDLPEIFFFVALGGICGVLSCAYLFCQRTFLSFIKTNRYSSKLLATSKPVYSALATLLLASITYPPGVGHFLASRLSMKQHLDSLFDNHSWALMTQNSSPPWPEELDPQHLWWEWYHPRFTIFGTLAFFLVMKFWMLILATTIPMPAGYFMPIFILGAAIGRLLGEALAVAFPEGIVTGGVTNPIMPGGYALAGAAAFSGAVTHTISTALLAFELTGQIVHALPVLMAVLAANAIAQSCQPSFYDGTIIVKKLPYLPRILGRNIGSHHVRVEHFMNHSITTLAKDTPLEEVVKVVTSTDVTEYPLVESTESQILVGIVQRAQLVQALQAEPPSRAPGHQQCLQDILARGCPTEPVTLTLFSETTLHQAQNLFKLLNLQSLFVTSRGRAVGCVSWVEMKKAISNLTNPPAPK
T1 sequence (Q8WZ55 1-320 Y98A partner): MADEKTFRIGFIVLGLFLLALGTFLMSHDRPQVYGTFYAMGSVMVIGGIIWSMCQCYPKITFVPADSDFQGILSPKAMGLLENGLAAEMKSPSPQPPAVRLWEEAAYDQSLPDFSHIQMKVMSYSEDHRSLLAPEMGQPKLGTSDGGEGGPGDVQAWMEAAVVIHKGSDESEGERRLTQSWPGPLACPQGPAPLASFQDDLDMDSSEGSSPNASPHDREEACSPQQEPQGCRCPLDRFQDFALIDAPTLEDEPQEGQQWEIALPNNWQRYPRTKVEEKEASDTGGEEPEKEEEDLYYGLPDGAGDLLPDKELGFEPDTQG

CLC-0 = conditions: negative potentials; cited from earlier work
N257A CLC-Ka [1] = molecular target: T2, N257A CLC-Ka (Homo sapiens, UniProt P51800, N257A); assay type: cell-based; conditions: 100 μM CPAint; negative voltages
T2 sequence (P51800 1-687 N257A): T1 sequence (P51800 1-687) with N257A
T2 sequence (Q8WZ55 1-320 Y98A partner): T1 sequence (Q8WZ55 1-320 Y98A partner)

CLC-1 = conditions: negative potentials; cited from earlier work
N257A CLC-Ka [2] = molecular target: T2, N257A CLC-Ka; assay type: cell-based; conditions: 50 μM CPA, intracellular; −100 mV

SMILES | effect on CLC-Ka (WT CLC-Ka) | effect on CLC-0 currents (CLC-0) | effect of CPA on currents (N257A CLC-Ka [1]) | effect on CLC-1 currents (CLC-1) | amplitude of predominant conductance level in the presence of CPA (N257A CLC-Ka [2])
O=C(O)c1ccccc1Nc1cccc(C(F)(F)F)c1 [flufenamic acid] | inhibit | – | – | – | –
O=C(O)COc1ccc(Cl)cc1 [CPA, p-chlorophenoxy-acetic acid] | – | block | inhibits | block | ~ 0.66 pA and 0.66 pA
O=S(=O)(O)c1cc(N=C=S)ccc1C=Cc1ccc(N=C=S)cc1S(=O)(=O)O [DIDS] | inhibit | – | – | – | –
